Laboratory results as given in ChEMBL document CHEMBL1201862, “PubChem BioAssay data set” (2004).
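Step 1: Grow cells in 96-well plates. Step 2: Expose to compound for 48 hours at 5 concentrations. Step 3: Interpolate endpoints linearly; if unreached, use highest concentration. Abbreviation: GI50, concentration required for 50% inhibition of growth.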 Activity calls are given as the source filed them. No stated cut-off is given here; in the data, active = GI50 up to about 1.1 µM and inactive = higher.

Experiments:
Experiment in all cases: NCI anticancer screen, dose series, 48 h
A549 = test system: A549
SF-268 = test system: SF-268
Hs-578T = test system: Hs-578T
SNB-75 = test system: SNB-75
BT-549 = test system: BT-549
OVCAR-4 = test system: OVCAR-4
OVCAR-3 = test system: OVCAR-3
NCI-H460 = test system: NCI-H460
K562 = test system: K562
MCF7 = test system: MCF7
NCI-H226 = test system: NCI-H226
NCI/ADR-RES = test system: NCI/ADR-RES
SK-OV-3 = test system: SK-OV-3
SW-620 = test system: SW-620
PC-3 = test system: PC-3
HCT-15 = test system: HCT-15
SNB-19 = test system: SNB-19
UACC-62 = test system: UACC-62
COLO 205 = test system: COLO 205
MDA-MB-231 = test system: MDA-MB-231
NCI-H23 = test system: NCI-H23
786-0 = test system: 786-0
SF-539 = test system: SF-539
EKVX = test system: EKVX
CCRF-CEM = test system: CCRF-CEM
ACHN = test system: ACHN
UACC-257 = test system: UACC-257
SK-MEL-28 = test system: SK-MEL-28
HT-29 = test system: HT-29
SK-MEL-5 = test system: SK-MEL-5
U-251 = test system: U-251
TK-10 = test system: TK-10
RXF 393 = test system: RXF 393
HCT-116 = test system: HCT-116
HCC 2998 = test system: HCC 2998
LOX IMVI = test system: LOX IMVI
KM12 = test system: KM12
SN12C = test system: SN12C
IGROV-1 = test system: IGROV-1
HOP-62 = test system: HOP-62
CAKI-1 = test system: CAKI-1
SF-295 = test system: SF-295
OVCAR-8 = test system: OVCAR-8
M14 = test system: M14
SK-MEL-2 = test system: SK-MEL-2
MDA-MB-435 = test system: MDA-MB-435
OVCAR-5 = test system: OVCAR-5
UO-31 = test system: UO-31
NCI-H522 = test system: NCI-H522
SR = test system: SR
MOLT-4 = test system: MOLT-4
T47D = test system: T47D
A498 = test system: A498
HOP-92 = test system: HOP-92
DU-145 = test system: DU-145

CC1(C)[N+]([O-])=[N+]([O-])C1(C)Br (stereo not drawn)
GI50 (A549): > 100 µM (inactive)
GI50 (SF-268): > 100 µM (inactive)
GI50 (Hs-578T): > 100 µM (inactive)
GI50 (SNB-75): > 100 µM (inactive)
GI50 (BT-549): > 100 µM (inactive)
GI50 (OVCAR-4): > 100 µM (inactive)
GI50 (OVCAR-3): > 100 µM (inactive)
GI50 (NCI-H460): > 100 µM (inactive)
GI50 (K562): > 100 µM (inactive)
GI50 (MCF7): > 100 µM (inactive)
GI50 (NCI-H226): > 100 µM (inactive)
GI50 (NCI/ADR-RES): 65.8 µM (inactive)
GI50 (SK-OV-3): > 100 µM (inactive)
GI50 (SW-620): > 100 µM (inactive)
GI50 (PC-3): > 100 µM (inactive)
GI50 (HCT-15): > 100 µM
GI50 (SNB-19): > 100 µM (inactive)
GI50 (UACC-62): > 100 µM (inactive)
GI50 (COLO 205): > 100 µM (inactive)
GI50 (MDA-MB-231): > 100 µM (inactive)
GI50 (NCI-H23): > 100 µM (inactive)
GI50 (786-0): > 100 µM (inactive)
GI50 (SF-539): > 100 µM (inactive)
GI50 (EKVX): > 100 µM (inactive)
GI50 (CCRF-CEM): > 100 µM (inactive)
GI50 (ACHN): > 100 µM (inactive)
GI50 (UACC-257): > 100 µM (inactive)
GI50 (SK-MEL-28): > 100 µM (inactive)
GI50 (HT-29): > 100 µM (inactive)
GI50 (SK-MEL-5): > 100 µM (inactive)
GI50 (U-251): > 100 µM (inactive)
GI50 (TK-10): > 100 µM (inactive)
GI50 (RXF 393): 43.8 µM (inactive)
GI50 (HCT-116): > 100 µM (inactive)
GI50 (HCC 2998): > 100 µM (inactive)
GI50 (LOX IMVI): > 100 µM (inactive)
GI50 (KM12): > 100 µM (inactive)
GI50 (SN12C): > 100 µM (inactive)
GI50 (IGROV-1): > 100 µM (inactive)
GI50 (HOP-62): > 100 µM (inactive)
GI50 (CAKI-1): > 100 µM (inactive)
GI50 (SF-295): 82.4 µM (inactive)
GI50 (OVCAR-8): > 100 µM (inactive)
GI50 (M14): > 100 µM (inactive)
GI50 (SK-MEL-2): > 100 µM (inactive)
GI50 (MDA-MB-435): > 100 µM (inactive)
GI50 (OVCAR-5): > 100 µM (inactive)
GI50 (UO-31): > 100 µM (inactive)
GI50 (NCI-H522): > 100 µM (inactive)
GI50 (SR): 91 µM (inactive)
GI50 (MOLT-4): > 100 µM (inactive)

Nc1nc(N)c2ncn(-c3ccccc3)c2n1
GI50 (T47D): > 100 µM (inactive)
GI50 (A549): 48.9 µM (inactive)
GI50 (SF-268): > 100 µM (inactive)
GI50 (Hs-578T): 52.6 µM (inactive)
GI50 (BT-549): > 100 µM (inactive)
GI50 (OVCAR-3): 89.9 µM (inactive)
GI50 (MCF7): 63.8 µM (inactive)
GI50 (NCI/ADR-RES): > 100 µM (inactive)
GI50 (SK-OV-3): > 100 µM (inactive)
GI50 (PC-3): > 100 µM (inactive)
GI50 (HCT-15): > 100 µM
GI50 (UACC-62): 71 µM (inactive)
GI50 (MDA-MB-231): > 100 µM (inactive)
GI50 (NCI-H23): > 100 µM (inactive)
GI50 (CCRF-CEM): 23.7 µM (inactive)
GI50 (ACHN): > 100 µM (inactive)
GI50 (SK-MEL-28): > 100 µM (inactive)
GI50 (HT-29): > 100 µM (inactive)
GI50 (A498): > 100 µM (inactive)
GI50 (TK-10): > 100 µM (inactive)
GI50 (RXF 393): 57.9 µM (inactive)
GI50 (HOP-92): > 100 µM (inactive)
GI50 (HCT-116): > 100 µM (inactive)
GI50 (HCC 2998): 48.4 µM (inactive)
GI50 (KM12): 24.2 µM (inactive)
GI50 (SN12C): 88.3 µM (inactive)
GI50 (IGROV-1): 36.3 µM (inactive)
GI50 (CAKI-1): 82.6 µM (inactive)
GI50 (DU-145): > 100 µM (inactive)
GI50 (SF-295): > 100 µM (inactive)
GI50 (OVCAR-8): > 100 µM (inactive)
GI50 (M14): > 100 µM (inactive)
GI50 (MDA-MB-435): > 100 µM (inactive)
GI50 (OVCAR-5): > 100 µM (inactive)
GI50 (UO-31): 68.2 µM (inactive)
GI50 (NCI-H522): > 100 µM (inactive)
GI50 (MOLT-4): 29.6 µM (inactive)
